SMILES | melting point
COc1cc(CC(=O)N2C[C@H](OC)C[C@H]2COc2ccc(C(=O)O)cc2)ccc1NC(=O)Nc1ccccc1F [Compound 136, 4-[1-[4-[N′-(2-fluorophenyl)ureido]-3-methoxyphenylacetyl]-(4R)-methoxy-(2S)-pyrrolidinylmethoxy]benzoic acid] | 111 to 116 °C
COc1cc(CC(=O)N2C3CCCCC3C[C@H]2COc2ccc(C(=O)O)cc2)ccc1NC(=O)Nc1ccccc1C (stereo partly drawn) [Compound 165, 4-[1-[3-methoxy-4-[N′-(2-methylphenyl)ureido]phenylacetyl]-(2S)-octahydroindolylmethoxy]benzoic acid] | 130 to 134 °C
COc1cc(CC(=O)N2C[C@H](O)C[C@H]2COc2ccc(C(=O)O)cc2)ccc1NC(=O)Nc1ccccc1C [Compound 110, 4-[(4R)-hydroxy-1-[3-methoxy-4-[N′-(2-methylphenyl)ureido]phenylacetyl]-(2S)-pyrrolidinylmethoxy]benzoic acid] | 178 to 182 °C
COc1cc(CC(=O)N2C[C@@H](NS(=O)(=O)c3ccc4ccccc4c3)C[C@H]2COc2ccc(C(=O)O)cc2)ccc1NC(=O)Nc1ccccc1Cl [Compound 161, 4-[cis-1-[4-[N′-(2-chlorophenyl)ureido]-3-methoxylphenylacetyl]-4-(2-naphthalenesulfonamido)-(2S)-pyrrolidinyl]methoxybenzoic acid] | 135 to 142 °C
COc1cc(CC(=O)N2C[C@H](O)C[C@H]2COc2ccc(C(=O)O)cc2)ccc1NC(=O)Nc1ccccc1Cl [Compound 109] | 137 to 142 °C
COc1cc(CC(=O)N2C[C@H](N(C)C)C[C@H]2COc2ccc(C(=O)O)cc2)ccc1NC(=O)Nc1ccccc1Cl | 159 to 161 °C
Cc1ccccc1NC(=O)Nc1ccc(CC(=O)N2CCCC2CCc2ccc(C(=O)O)cc2)cc1 (stereo not drawn) [Compound 7, 4-[2-[1-[4-[N′-(2-methylphenyl)ureido]phenylacetyl]-2-pyrrolindinyl]ethyl]benzoic acid] | 180 to 190 °C
COc1cc(C(=O)O)ccc1OCc1csc(Cc2ccc(NC(=O)Nc3ccccc3C)cc2)n1 [Compound 41, 3-methoxy-4-[2-[4-[N′-(2-methylphenyl)ureido]benzyl]4-thiazolyl]methoxybenzoic acid] | 243 to 245 °C
COc1cc(CC(=O)N2C[C@@H](NS(=O)(=O)c3c(C)cc(C)cc3C)C[C@H]2COc2ccc(C(=O)O)cc2)ccc1NC(=O)Nc1ccccc1Br [Compound 162] | 130 to 132 °C
COc1cc(CC(=O)N2CCCC2C#Cc2ccc(C(=O)O)cc2)ccc1NC(=O)Nc1ccccc1 (stereo not drawn) [Compound 13, 4-[2-[1-[3-methoxy4-(N′-phenylureido)phenylacetyl]-2-pyrrolidinyl]ethynyl]benzoic acid] | 154 to 157 °C
O=C(Nc1ccc(CC(=O)N2C[C@@H](F)C[C@H]2COc2ccc(C(=O)O)cc2)cc1)Nc1ccccc1C(F)(F)F [Compound 75, 4-[(4S)-fluoro-1-[4-[N′-(2-trifluoromethylphenyl)ureido]phenylacetyl]-(2S)-pyrrolidinylmethoxy]benzoic acid] | 130 to 135 °C
COc1cc(CC(=O)N2CCC[C@H]2COc2ccc(C(=O)O)cc2)ccc1NC(=O)Nc1ccccc1Br [Compound 59, 4-[1-[4-[N′-(2-bromophenyl)ureido]-3-methoxylphenylacetyl]-(2S)-pyrrolidinyl]methoxybenzoic acid] | 120 to 125 °C
COc1cc(CC(=O)N2C[C@@H](N(C)C)C[C@H]2COc2ccc(C(=O)O)cc2)ccc1NC(=O)Nc1ccccc1C | 147 to 150 °C
COc1cc(CC(=O)N2C[C@@H](O)C[C@H]2COc2ccc(C(=O)O)cc2)ccc1NC(=O)Nc1ccccc1Br [Compound 108] | 143 to 151 °C (dec.)
COc1cc(CC(=O)N2C[C@@H](Oc3ccc4ncccc4c3)C[C@H]2COc2ccc(C(=O)O)cc2)ccc1NC(=O)Nc1ccccc1Br [Compound 122] | 149 to 153 °C
COc1cc(CC(=O)N2C[C@@H](Oc3ccc4ncccc4c3)C[C@H]2COc2ccc(C(=O)O)cc2)ccc1NC(=O)Nc1ccccc1Cl [Compound 121] | 129 to 133 °C

Second part, the molecule after the results:

melting point | SMILES
136 to 142 °C | COc1cc(CC(=O)N2CCC[C@H]2C(=O)NC2CCC(C(=O)O)CC2)ccc1NC(=O)Nc1ccccc1C (stereo in doubt) [Compound 180, 4-[[1-[3-methoxy-4-[N′-(2-methylphenyl)ureido]phenylacetyl]-2-pyrrolidinyl]carbonylamino]cyclohexanecarboxylic acid]
173 to 175 °C | COc1cc(CC(=O)N2CC[C@H](Oc3ccc(C(=O)O)cc3)C2)ccc1NC(=O)Nc1ccccc1Br [Compound 184, 4-[1-[4-[N′-(2-bromophenyl)ureido]-3-methoxyphenylacetyl]-(3S)-pyrrolidinyloxy]benzoic acid]
111 to 115 °C | COc1cc(CC(=O)N2CCC[C@H]2COC2CCC(C(=O)O)CC2)ccc1NC(=O)Nc1ccccc1Cl (stereo partly drawn) [Compound 175, 4-[[1-[4-[N′-(2-chlorophenyl)ureido]-3-methoxylphenylacetyl]-(2S)-pyrrolidinyl]methoxy]cyclohexanecarboxylic acid]
112 to 115 °C | COc1cc(CC(=O)NCCOc2ccc(C(=O)O)cc2[N+](=O)[O-])ccc1NC(=O)Nc1ccccc1C [Compound 257, 3-nitro-4-[2-[3-methoxy-4-[N′-(2-methylphenyl)ureido]phenylacetyl]aminoethoxy]benzoic acid]
193 to 194 °C | COc1cc(CC(=O)N2CC[C@@H](Oc3ccc(C(=O)O)cc3)C2)ccc1NC(=O)Nc1ccccc1Cl [Compound 186, 4-[1-[4-[N′-(2-chlorophenyl)ureido]-3-methoxyphenylacetyl]-(3R)-pyrrolidinyloxy]benzoic acid]
188 to 191 °C | COc1cc(CC(=O)N[C@@H](C)COc2ccc(C(=O)O)cc2Cl)ccc1NC(=O)Nc1ccccc1F [Compound 281, (S)-3-chloro-4-[2-[3-methoxy-4-[N′-(2-fluorophenyl)ureido]phenylacetylamino]-1-propoxy]benzoic acid]
120 to 125 °C | COc1cc(CC(=O)N(C)CCOc2ccc(C(=O)O)cc2N2CCCCC2)ccc1NC(=O)Nc1ccccc1C [Compound 291, 3-(1-piperidinyl)-4-[[2-[3-methoxy-4-[N′-(2-methylphenyl)ureido]phenylacetyl]methylamino]ethoxy]benzoic acid]
108 to 111 °C | COc1cc(CC(=O)N2CCC[C@H]2COC2CCC(C(=O)O)CC2)ccc1NC(=O)Nc1ccccc1Br (stereo partly drawn) [Compound 176, 4-[1-[4-[N′-(2-bromophenyl)ureido]-3-methoxylphenylacetyl]-(2S)-pyrrolidinyl]methoxy cyclohexanecarboxilic acid]
130 to 135 °C | COc1cc(CC(=O)N(C)CCOc2ccc(C(=O)O)cc2N(C)C(C)C)ccc1NC(=O)Nc1ccccc1C [Compound 288, 3-(N-isopropyl-N-methylamino)-4-[[2-[3-methoxy-4-[N′-(2-methylphenyl)ureido]phenylacetyl]methylamino]ethoxy]benzoic acid]
155 to 160 °C | COc1cc(CC(=O)N(CCOc2ccc(C(=O)O)cc2OC)CCN2CCN(C)CC2)ccc1NC(=O)Nc1ccccc1C [Compound 263]
175 to 177 °C | COc1cc(CC(=O)N2CC[C@@H](Oc3ccc(C(=O)O)cc3)C2)ccc1NC(=O)Nc1ccccc1Br [Compound 187, 4-[1-[4-[N′-(2-bromophenyl)ureido]-3-methoxyphenylacetyl]-(3R)-pyrrolidinyloxy]benzoic acid]
198 to 201 °C | COc1cc(CC(=O)N[C@@H](C)COc2ccc(C(=O)O)cc2Cl)ccc1NC(=O)Nc1ccccc1C [Compound 275, (S)-3-chloro-4-[2-[3-methoxy-4-[N′-(2-methylphenyl)ureido]phenylacetylamino]-1-propoxy]benzoic acid]
125 to 130 °C | COc1cc(CC(=O)N(C)CCOc2ccc(C(=O)O)cc2N)ccc1NC(=O)Nc1ccccc1C [Compound 290, 3-amino-4-[[2-[3-methoxy-4-[N′-(2-methylphenyl)ureido]phenylacetyl]methylamino]ethoxy]benzoic acid]
110 to 113 °C | COc1cc(CC(=O)N2CCC[C@H]2COC2CCC(C(=O)O)CC2)ccc1NC(=O)Nc1ccccc1C (stereo partly drawn) [Compound 174, 4-[[1-[3-methoxy-4-[N′(2-methylphenyl)ureido]phenylacetyl]-(2S)-pyrrolidinyl]methoxy]cyclohexanecarboxylic acid]
125 to 128 °C | COc1cc(CC(=O)N2CSC[C@H]2COc2ccc(C(=O)O)cc2)ccc1NC(=O)Nc1ccccc1C (stereo in doubt) [Compound 168, 4-[3-[3-methoxy-4-[N′-(2-methylphenyl)ureido]phenyl]acetyl-4-thiazolidinyl]methoxybenzoic acid]
118 to 123 °C | COc1cc(CC(=O)N2C3CCCCC3C[C@H]2COc2ccc(C(=O)O)cc2)ccc1NC(=O)Nc1ccccc1Br (stereo partly drawn) [Compound 167, 4-[1-[4-[N′-(2-bromophenyl)ureido]-3-methoxyphenylacetyl]-(2S)-octahydroindolylmethoxy]benzoic acid]
180 to 181 °C | COc1cc(CC(=O)NCCOc2ccc(C(=O)O)cc2OC)ccc1NC(=O)Nc1ccccc1C [Compound 255, 3-methoxy-4-[2-[3-methoxy-4-[N′-(2-methylphenyl)ureido]phenylacetyl]aminoethoxy]benzoic acid]
228 to 231 °C | Cc1ccccc1NC(=O)Nc1ccc(CC(=O)N[C@@H](C)COc2ccc(C(=O)O)cc2Cl)cc1 [Compound 274, (S)-3-chloro-4-[2-[4-[N′-(2-methylphenyl)ureido]phenylacetylamino]-1-propoxy]benzoic acid]
131 to 135 °C | COc1cc(CC(=O)N2CC[C@H](Oc3ccc(C(=O)O)cc3)C2)ccc1NC(=O)Nc1ccccc1C [Compound 182, 4-[1-[3-methoxy-4-[N′-(2-methylphenyl)ureido]phenylacetyl]-(3S)-pyrrolidinyloxy]benzoic acid]
110 to 115 °C | Cc1ccccc1NC(=O)Nc1ccc(CC(=O)N(C)CCOc2ccc(C(=O)O)cc2N(C)C)cc1 [Compound 278]

From US7179819B2, “VLA-4 inhibitor compounds” (Daiichi Pharmaceutical Co., Ltd., priority 1999, dated 2007)
